Columns and labels:
[1] = test system: Human epidermal keratinocytes (HEKn); test: Protein expression, immunofluorescence; type: cell-based; conditions: 48 h, FIG. 7C
Procedure: HEKn were cultured until the third passage before treatment. Keratinocytes were plated in a 96-well plate and at 80% confluence, 10^-7 M secosteroids (or 0.1% ethanol control) were added and cells were incubated for 48 h. Cells were fixed and stained with anti-involucrin (1:20, GTX-14504; Genetex, Irvine, CA, USA) anti-CK10 (1:300, Santa Cruz Biotechnology), anti-catalase (1:200, Santa Cruz Biotechnology) or anti-CK14 antibody with Alexa Fluor® 488 (1:500, Santa Cruz Biotechnology) and imaged at 10× magnification in Cytation 5 reader as described before (Chaiprasongsuk A, et. al., (2020) Free Radic Biol Med 155 87-9845; Slominski A T, et. al., (2017) Sci Rep 7(1) 11434; Chaiprasongsuk A, et. al., (2020) Int J Mol Sci 21(24)). Nuclei were stained with blue DAPI. Fluorescence intensity was measured using the Cytation 5 reader and ImageJ, and data were analyzed using Graph Pad Prizm.
FIG. 7C and FIG. 7D represent protein expression studies. Values are presented as percentage of fluorescence positive cells (FIG. 7C) or as mean fluorescence per cell (% of all cells (FIG. 7D). The values in FIG. 7D were calculated as mean green fluorescence vs DAPI blue fluorescence measured in ImageJ. Data are means±SD (n=3) and were analyzed using Student's t-test with p<0.05 (*), p<0.01 (**) or p<0.001 (***).

[2] = target: T1, Mouse CYP27B1 (Mus musculus, UniProt O35084); test: CYP27B1 activity on secosteroids in phospholipid vesicles (1α-hydroxylation); type: in vitro ADME; conditions: for 1α-hydroxylase activity: 0.025 mol secosteroid/mol phospholipid, CYP27B1 0.2 μM, mean±SD, n=3; for rate / efficiency of 1α-hydroxylation by CYP27B1, in words: phospholipid vesicles, mouse CYP27B1
T1 construct: made in house; host or cells: E. coli
T1 sequence (O35084 1-507): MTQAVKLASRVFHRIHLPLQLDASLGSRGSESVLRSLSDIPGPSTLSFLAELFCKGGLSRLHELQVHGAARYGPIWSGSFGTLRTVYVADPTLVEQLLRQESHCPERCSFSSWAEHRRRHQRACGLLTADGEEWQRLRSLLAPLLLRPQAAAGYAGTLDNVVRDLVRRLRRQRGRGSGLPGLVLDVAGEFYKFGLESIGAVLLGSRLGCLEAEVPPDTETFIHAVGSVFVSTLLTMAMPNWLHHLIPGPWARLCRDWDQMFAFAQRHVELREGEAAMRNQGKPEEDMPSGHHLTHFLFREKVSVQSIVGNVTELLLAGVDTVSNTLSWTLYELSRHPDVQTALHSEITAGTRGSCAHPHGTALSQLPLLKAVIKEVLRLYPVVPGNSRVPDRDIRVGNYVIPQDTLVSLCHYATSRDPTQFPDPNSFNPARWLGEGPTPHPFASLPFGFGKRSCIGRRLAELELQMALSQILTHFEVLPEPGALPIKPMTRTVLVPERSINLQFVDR
Procedure: Mouse CYP27B1 was expressed in E. coli and purified (Tang E K, et. al., (2010) Drug Metabolism and Disposition, 38(9) 1553-9). CYP27B1 activity was measured on substrate incorporated into the membrane of phospholipid vesicles as described previously. Briefly, phospholipid vesicles were prepared by sonication of dioleoyl phosphatidylcholine, cardiolipin and secosteroid. Vesicles (510 μM phospholipid) were then incubated at 37° C. with CYP27B1 (0.2 μM) in buffer comprising 20 mM Hepes, pH 7.4, 100 mM NaCl, 0.1 mM EDTA, 0.1 mM and dithiothreitol, adrenodoxin (15 μM), adrenodoxin reductase (0.4 μM), glucose-6-phosphate (2 mM), glucose-6-phosphate dehydrogenase (2 U/mL) and NAPDH (50 μM) in a volume of 0.5 ml. After reaction (5 or 20 min), the incubation mixture was extracted 3-times with 2.5 ml dichloromethane, extracts combined, dried under N2 gas and dissolved in 64% methanol. Samples were analysed by reverse phase HPLC on a Grace Alltima column (25×0.46 cm) using a gradient of 64 to 100% methanol for 15 min followed by 100% methanol for 30 min, at a flow rate of 0.5 ml/min. Metabolites were detected with a UV detector at 265 nm.
All four chemically synthesized secosteroids were converted to their expected 1α-hydroxy derivatives by CYP27B1, and identified on the basis of previous studies on the enzymatically and/or chemically derived substrates (Li W, et. al., (2010) Steroids 75(12) 926-35, Tang E K, et. al., (2013) Drug metabolism and disposition: the biological fate of chemicals 41(5) 1112-24, Lin Z, et. al., (2016) J Med Chem 59(10) 5102-8, Tang E K, et. al., (2010) Drug metabolism and disposition: the biological fate of chemicals 38(9) 1553-9). Secosteroids were incorporated into phospholipid vesicles at a ratio of 0.025 mol secosteroid/mol phospholipid and incubated with mouse CYP27B1 (0.2 μM) for 20 min for all substrates except 20S,25(OH)2D3 which was incubated for 5 min. Extracted samples were analyzed by reverse-phase HPLC. Data are mean±SD, n=3. […] In summary, the efficiency of metabolism of D3 derivatives by CYP27B1 is as follows: 20S,25(OH)2D3>>20S,23S(OH)2D3>20S(OH)D3=20S,23R(OH)2D3.

Row | rate / efficiency of 1α-hydroxylation by CYP27B1, in words [2] | 1α-hydroxylase activity ([2]; incubated 5 min) | SMILES | protein levels of involucrin, CK10, CK14, and catalase [1] | 1α-hydroxylase activity ([2]; incubated 20 min)
1 | relatively poorer substrate for CYP27B1 |  | C=C1CC[C@H](O)C/C1=C/C=C1\CCC[C@@]2(C)[C@H]1CC[C@@H]2[C@@](C)(O)CCCC(C)C [20S(OH)D3, (20S)-20-Hydroxyvitamin D3] | increasing the levels of involucrin, CK10, CK14, and catalase | 0.135 ± 0.005 mol product/min/mol CYP27B1
2 |  |  | C=C1CC[C@H](O)C/C1=C/C=C1\CCC[C@@]2(C)[C@H]1CC[C@@H]2[C@@](C)(O)C[C@H](O)CC(C)C [20S,23R(OH)2D3, (20S,23R)-20,23-Dihydroxyvitamin D3] | increasing the levels of involucrin, CK10, CK14, and catalase | 0.117 ± 0.027 mol product/min/mol CYP27B1
3 | high rate of 1α-hydroxylation | 7.98 ± 0.24 mol product/min/mol CYP27B1 | C=C1CC[C@H](O)C/C1=C/C=C1\CCC[C@@]2(C)[C@H]1CC[C@@H]2[C@@](C)(O)CCCC(C)(C)O [20S,25(OH)2D3, (20S)-20,25-Dihydroxyvitamin D3] | increasing the levels of involucrin, CK10, CK14, and catalase | 

Row | SMILES | rate / efficiency of 1α-hydroxylation by CYP27B1, in words [2] | 1α-hydroxylase activity ([2]; incubated 5 min) | protein levels of involucrin, CK10, CK14, and catalase [1] | 1α-hydroxylase activity ([2]; incubated 20 min)
4 | C=C1CC[C@H](O)C/C1=C/C=C1\CCC[C@@]2(C)[C@H]1CC[C@@H]2[C@@](C)(O)C[C@@H](O)CC(C)C [20S,23S(OH)2D3, (20S,23S)-20,23-Dihydroxyvitamin D3] | metabolized approximately twice as fast as the non-natural 20S,23R-isomer |  | increasing the levels of involucrin, CK10, CK14, and catalase | 0.258 ± 0.020 mol product/min/mol CYP27B1

Reference: patent US20240327320A1, “NOVEL ROUTES OF CHEMICAL SYNTHESIS OF 20S(OH)D3, 20S,25(OH)2D3, 20S,23S(OH)2D3, AND 20S,23R(OH)2D3 AND THEIR MODIFICATION OF THE IMMUNE ACTIVITY OF PBMCS” (United State Government as represen ted by the Department …, priority 2023, published 2024)
